Assay results: patent US6339045B1, “N-(unsubstituted or substituted)-4-substituted-6-(unsubstituted or substituted)phenoxy-2-pyridinecarboxamides or thiocarboxamides, processes for producing the same, and herbicides” (Kureha Kagaku Kogyo Kabushiki Kaisha, priority 1995, dated 2002)

Assays:
Assay in all cases: Herbicidal effect by foliage and soil treatment
Assay type in all cases: in vivo
Settings in all cases: 10 g ai/10a, evaluated after 14 days
[1] = system: common blackjack (Bidens pilosa)
Outline: (§1)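 Scores are ratings of growth versus untreated plants 14 days after treatment. Plants grown to cotyledonal–bifoliate stage in granular soil at 19 to 25° C received a foliage-and-soil spray of test solution containing Tween 20, applied at a set compound amount.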

[2] = system: black nightshade (Solanum nigrum)
Outline: as §1

[3] = system: sicklepod (Cassia obtusifolia)
Outline: as §1

[4] = system: ivyleafspeedwell (Veronica hederaefolia)
Outline: as §1

[5] = system: redroot pigweed (Amaranthus retroflexus)
Outline: as §1

[6] = system: cleavers (Galium aparine)
Outline: as §1

[7] = system: velvetleaf (Abutilon theophrasti)
Outline: as §1

[8] = system: kediock (Sinapis arvensis)
Outline: as §1

[9] = system: wild chamomile (Matricaria chamomilla)
Outline: as §1

[10] = system: field bindweed (Convolvulus arvensis)
Outline: as §1

[11] = system: common chickweed (Stellaria media)
Outline: as §1

Row | SMILES | herbicidal activity rating, BP (Bidens pilosa) [1] | herbicidal activity rating, SN (Solanum nigrum) [2] | herbicidal activity rating, CO (Cassia obtusifolia) [3] | herbicidal activity rating, VH (Veronica hederaefolia) [4] | herbicidal activity rating, AR (Amaranthus retroflexus) [5] | herbicidal activity rating, GA (Galium aparine) [6] | herbicidal activity rating, AT (Abutilon theophrasti) [7] | herbicidal activity rating, SA (Sinapis arvensis) [8] | herbicidal activity rating, MC (Matricaria chamomilla) [9] | herbicidal activity rating, CA (Convolvulus arvensis) [10] | herbicidal activity rating, SM (Stellaria media) [11]
1 | CCCCCNC(=O)c1cc(OC)cc(Oc2cccc(C(F)(F)F)c2)n1 [Compound I-52] | 3 (percentage of weeds killed was not less than 40% and less than 60%) | 5 (percentage of weeds killed was not less than 80%) | 4 (percentage of weeds killed was not less than 60% and less than 80%) | 5 (percentage of weeds killed was not less than 80%) | 5 (percentage of weeds killed was not less than 80%) | 5 (percentage of weeds killed was not less than 80%) | 4 (percentage of weeds killed was not less than 60% and less than 80%) | 5 (percentage of weeds killed was not less than 80%) | 3 (percentage of weeds killed was not less than 40% and less than 60%) | 5 (percentage of weeds killed was not less than 80%) | 5 (percentage of weeds killed was not less than 80%)
2 | CSc1cc(Oc2cccc(C(F)(F)F)c2)nc(C(=O)NC(C)C)c1 [Compound I-55, N-(i-propyl)-4-methylmercapto-6-{3-(trifluoromethyl)phenoxy}-2-pyridine carboxamide] | 4 (percentage of weeds killed was not less than 60% and less than 80%) | 5 (percentage of weeds killed was not less than 80%) | 5 (percentage of weeds killed was not less than 80%) | 5 (percentage of weeds killed was not less than 80%) | 5 (percentage of weeds killed was not less than 80%) | 5 (percentage of weeds killed was not less than 80%) | 4 (percentage of weeds killed was not less than 60% and less than 80%) | 4 (percentage of weeds killed was not less than 60% and less than 80%) | 3 (percentage of weeds killed was not less than 40% and less than 60%) | 4 (percentage of weeds killed was not less than 60% and less than 80%) | 4 (percentage of weeds killed was not less than 60% and less than 80%)
3 | CNc1cc(Oc2cccc(C(F)(F)F)c2)nc(C(=O)NC(C)C)c1 [Compound I-56, N-(i-propyl)-4-methylamino-6-{3-(trifluoromethyl)phenoxy}-2-pyridine carboxamide] | 4 (percentage of weeds killed was not less than 60% and less than 80%) | 5 (percentage of weeds killed was not less than 80%) | 4 (percentage of weeds killed was not less than 60% and less than 80%) | 5 (percentage of weeds killed was not less than 80%) | 5 (percentage of weeds killed was not less than 80%) | 5 (percentage of weeds killed was not less than 80%) | 5 (percentage of weeds killed was not less than 80%) | 5 (percentage of weeds killed was not less than 80%) | 4 (percentage of weeds killed was not less than 60% and less than 80%) | 5 (percentage of weeds killed was not less than 80%) | 4 (percentage of weeds killed was not less than 60% and less than 80%)
4 | CC(C)NC(=O)c1cc(N(C)C)cc(Oc2cccc(C(F)(F)F)c2)n1 [Compound I-57, N-(i-propyl)-4-dimethylamino-6-{3-(trifluoromethyl)phenoxy}-2-pyridine carboxamide] | 5 (percentage of weeds killed was not less than 80%) | 5 (percentage of weeds killed was not less than 80%) | 5 (percentage of weeds killed was not less than 80%) | 5 (percentage of weeds killed was not less than 80%) | 5 (percentage of weeds killed was not less than 80%) | 5 (percentage of weeds killed was not less than 80%) | 4 (percentage of weeds killed was not less than 60% and less than 80%) | 5 (percentage of weeds killed was not less than 80%) | 3 (percentage of weeds killed was not less than 40% and less than 60%) | 4 (percentage of weeds killed was not less than 60% and less than 80%) | 4 (percentage of weeds killed was not less than 60% and less than 80%)
5 | CC(C)NC(=O)c1cc(N(C)Cc2ccccc2)cc(Oc2cccc(C(F)(F)F)c2)n1 [Compound I-58, N-(i-propyl)-4-{methyl(phenylmethyl)amino}-6-{3-(trifluoromethyl)phenoxy}-2-pyridine carboxamide] | 2 (percentage of weeds killed was not less than 20% and less than 40%) | 5 (percentage of weeds killed was not less than 80%) | 5 (percentage of weeds killed was not less than 80%) | 5 (percentage of weeds killed was not less than 80%) | 5 (percentage of weeds killed was not less than 80%) | 5 (percentage of weeds killed was not less than 80%) | 4 (percentage of weeds killed was not less than 60% and less than 80%) | 5 (percentage of weeds killed was not less than 80%) | 3 (percentage of weeds killed was not less than 40% and less than 60%) | 5 (percentage of weeds killed was not less than 80%) | 4 (percentage of weeds killed was not less than 60% and less than 80%)
6 | CCOc1cc(Oc2cccc(C(F)(F)F)c2)nc(C(=O)NC(C)C)c1 [Compound I-59] | 3 (percentage of weeds killed was not less than 40% and less than 60%) | 5 (percentage of weeds killed was not less than 80%) | 5 (percentage of weeds killed was not less than 80%) | 5 (percentage of weeds killed was not less than 80%) | 5 (percentage of weeds killed was not less than 80%) | 5 (percentage of weeds killed was not less than 80%) | 4 (percentage of weeds killed was not less than 60% and less than 80%) | 5 (percentage of weeds killed was not less than 80%) | 4 (percentage of weeds killed was not less than 60% and less than 80%) | 4 (percentage of weeds killed was not less than 60% and less than 80%) | 5 (percentage of weeds killed was not less than 80%)
7 | COCCNC(=O)c1cc(OC)cc(Oc2cccc(C(F)(F)F)c2)n1 [Compound I-61] | 2 (percentage of weeds killed was not less than 20% and less than 40%) | 5 (percentage of weeds killed was not less than 80%) | 5 (percentage of weeds killed was not less than 80%) | 5 (percentage of weeds killed was not less than 80%) | 5 (percentage of weeds killed was not less than 80%) | 5 (percentage of weeds killed was not less than 80%) | 4 (percentage of weeds killed was not less than 60% and less than 80%) | 5 (percentage of weeds killed was not less than 80%) | 5 (percentage of weeds killed was not less than 80%) | 3 (percentage of weeds killed was not less than 40% and less than 60%) | 5 (percentage of weeds killed was not less than 80%)
8 | COc1cc(Oc2cccc(C(F)(F)F)c2)nc(C(=O)NCCSC)c1 [Compound I-62] | 4 (percentage of weeds killed was not less than 60% and less than 80%) | 5 (percentage of weeds killed was not less than 80%) | 5 (percentage of weeds killed was not less than 80%) | 5 (percentage of weeds killed was not less than 80%) | 5 (percentage of weeds killed was not less than 80%) | 5 (percentage of weeds killed was not less than 80%) | 3 (percentage of weeds killed was not less than 40% and less than 60%) | 5 (percentage of weeds killed was not less than 80%) | 4 (percentage of weeds killed was not less than 60% and less than 80%) | 4 (percentage of weeds killed was not less than 60% and less than 80%) | 5 (percentage of weeds killed was not less than 80%)
